Reference: US20030143670A1, “DNA encoding SNORF44 receptor” (priority 1999, published 2003)
“Also recorded” adds a separate entry of the source. Where no end group is shown, it is not given here.

T1: hSNORF44 (Homo sapiens, UniProt Q96P65)
T1 sequence (Q96P65 1-431): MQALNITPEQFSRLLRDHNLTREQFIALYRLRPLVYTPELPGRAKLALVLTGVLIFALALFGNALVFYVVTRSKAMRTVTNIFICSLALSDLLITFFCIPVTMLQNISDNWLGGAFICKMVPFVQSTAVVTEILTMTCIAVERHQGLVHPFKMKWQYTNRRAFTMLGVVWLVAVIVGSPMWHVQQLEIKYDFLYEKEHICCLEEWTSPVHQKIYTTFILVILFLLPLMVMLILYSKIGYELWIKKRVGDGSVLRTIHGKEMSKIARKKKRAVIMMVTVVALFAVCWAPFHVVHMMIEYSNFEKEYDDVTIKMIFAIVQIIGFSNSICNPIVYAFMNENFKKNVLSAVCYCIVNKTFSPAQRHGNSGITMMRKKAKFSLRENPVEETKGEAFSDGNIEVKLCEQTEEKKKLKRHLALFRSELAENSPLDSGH

T2: human SNORF44 receptor (human, UniProt Q96P65 1-431)
T2 sequence: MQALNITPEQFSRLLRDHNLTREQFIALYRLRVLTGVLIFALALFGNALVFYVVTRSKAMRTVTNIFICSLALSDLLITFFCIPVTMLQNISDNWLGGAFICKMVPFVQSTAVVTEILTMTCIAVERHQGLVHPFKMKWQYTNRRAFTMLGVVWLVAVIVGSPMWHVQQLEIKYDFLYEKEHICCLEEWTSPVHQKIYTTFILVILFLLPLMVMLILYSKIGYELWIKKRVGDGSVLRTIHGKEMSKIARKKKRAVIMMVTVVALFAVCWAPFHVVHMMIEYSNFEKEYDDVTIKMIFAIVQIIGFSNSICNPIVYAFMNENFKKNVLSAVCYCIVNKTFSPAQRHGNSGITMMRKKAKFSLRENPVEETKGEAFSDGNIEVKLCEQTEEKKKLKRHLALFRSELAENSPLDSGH


Tests used:
MC3 = MC3 (Homo sapiens, UniProt P41968); settings: Schioth et al., 1996; cited from earlier work
hSNORF44 [1] = experiment: Intracellular Ca2+ release (FLIPR) in transiently transfected COS-7 cells; type: cell-based, human; settings: vector-transfected cells (so in the source); data not shown
Procedure: (§1) A typical protocol for the DEAE-dextran method as applied to COS-7 and HEK293 cells is described as follows. Cells to be used for transfection are split 24 hours prior to the transfection to provide flasks which are 70-80% confluent at the time of transfection. Briefly, 8 μg of receptor DNA plus 8 μg of any additional DNA needed (e.g. Gα protein expression vector, reporter construct, antibiotic resistance marker, mock vector, etc.) are added to 9 ml of complete DMEM plus DEAE-dextran mixture (10 mg/ml in PBS). Cells plated into a T225 flask (sub-confluent) are washed once with PBS and the DNA mixture is added to each flask. The cells are allowed to incubate for 30 minutes at 37° C., 5% CO2. Following the incubation, 36 ml of complete DMEM with 80 μM chloroquine is added to each flask and allowed to incubate an additional 3 hours. The medium is then aspirated and 24 ml of complete medium containing 10% DMSO for exactly 2 minutes and then aspirated. […]
(§2) The compounds of interest are diluted in wash buffer (Hank's BSS (without phenol red), 20 mM HEPES, 2.5 mM probenecid) to a 4× final concentration and aliquoted into a clear v-bottom plate (Nunc). […] Compounds are added to the cell plates and responses are measured using the FLIPR™ instrument. The data are then collected and analyzed using the FLIPR™ software and Graphpad Prism. […]

human SNORF44 = experiment: Calcium-activated Cl- currents in Xenopus laevis oocytes (voltage clamp); type: cell-based; settings: control (uninjected) oocytes not expressing hSNORF44
Procedure: (§3) Oocytes were harvested from Xenopus laevis and injected with mRNA transcripts as previously described (Quick and Lester, 1994; Smith et al.,1997). Synthetic, full-length RNA transcripts for human SNORF44 were produced by digestion of the plasmid BN16 with HINDIII followed by transcription with T7 RNA Polymerase (“Message Machine”, Ambion). Oocytes were injected with 15 ng hSN44 receptors synthetic RNA and incubated for 3-4 days at 17 degrees. Dual electrode voltage clamp (Axon Instruments Inc.) was performed using 3 M KCl-filled glass microelectrodes having resistances of 1-2 Mohm. Unless otherwise specified, oocytes were voltage clamped at a holding potential of −80 mV. During recordings, oocytes were bathed in continuously flowing (1-3 ml/min) medium containing 96 mM NaCl, 2 mM KCl, 1.8 mM CaCl2, 1 mM MgCl2, and 5 mM HEPES, pH 7.5 (ND96 Buffer). Drugs were applied by local perfusion from a […] glass capillary tube fixed at a distance of 0.5 mm from the oocyte.
(§4) Heterologous expression of GPCRs in Xenopus oocytes has been widely used to determine the identity of signaling pathways activated by agonist stimulation (Gundersen et al., 1983; Takahashi et al., 1987). Activation of the phospholipase C (PLC) pathway is assayed by applying test compound in ND96 solution to oocytes previously injected with mRNA for the mammalian receptor and observing inward currents at a holding potential of −80 mV. The appearance of currents that reverse at −25 mV and display other properties of the Ca^++-activated Cl^− (chloride) channel is indicative of mammalian receptor-activation of PLC and release of IP3 and intracellular Ca^++.

hSNORF44 [2] = biological target: T1, hSNORF44; experiment: Intracellular Ca2+ release (FLIPR) in transiently transfected COS-7 cells; type: cell-based; set-up: The entire coding region was then amplified by PCR from human spinal cord cDNA and subcloned into pcDNA3.1(−) for expression and functional analyses; expressed in transfected cells; host or cells: COS-7; settings: COS-7 cells transfected with SNORF44
Procedure: A typical protocol for the DEAE-dextran method as applied to COS-7 and HEK293 cells is described as follows. Cells to be used for transfection are split 24 hours prior to the transfection to provide flasks which are 70-80% confluent at the time of transfection. Briefly, 8 μg of receptor DNA plus 8 μg of any additional DNA needed (e.g. Gα protein expression vector, reporter construct, antibiotic resistance marker, mock vector, etc.) are added to 9 ml of complete DMEM plus DEAE-dextran mixture (10 mg/ml in PBS). Cells plated into a T225 flask (sub-confluent) are washed once with PBS and the DNA mixture is added to each flask. The cells are allowed to incubate for 30 minutes at 37° C., 5% CO2. Following the incubation, 36 ml of complete DMEM with 80 μM chloroquine is added to each flask and allowed to incubate an additional 3 hours. The medium is then aspirated and 24 ml of complete medium containing 10% DMSO for exactly 2 minutes and then aspirated. The cells are then washed 2 times with PBS and 30 ml of complete DMEM added to each flask. The cells are then allowed to incubate over night. The next day the cells are harvested by trypsinization and reseeded into 96 well plates.
Cells expressing the receptor of interest are plated into clear, flat-bottom, black-walled 96-well plates (Costar) at a density of 80,000-150,000 cells per well and allowed to incubate for 48 hr at 5% CO2, 37° C. The growth medium is aspirated and 100 μL of loading medium containing Fluo-3 dye is added to each well. […]
as §2

hSNORF44 [3] = biological target: T1, hSNORF44; experiment: Calcium-activated Cl- currents in Xenopus laevis oocytes (voltage clamp); type: cell-based; set-up: Synthetic, full-length RNA transcripts for human SNORF44 were produced by digestion of the plasmid BN16; expressed in transfected cells; host or cells: Xenopus laevis oocytes injected with synthetic RNA; settings: oocytes injected with SNORF44 mRNA; 10 μM peptide; holding potential -80 mV
Procedure: as §3, §4

hSNORF44 [4] = biological target: T1, hSNORF44; experiment: Inositol phosphate (IP) release in transfected COS-7 cells; type: cell-based; set-up: The entire coding region was then amplified by PCR from human spinal cord cDNA and subcloned into pcDNA3.1(−) for expression and functional analyses; expressed in transfected cells; host or cells: COS-7; settings: hSNORF44-transfected COS-7 cells
Procedure: as §1, with “hours.” for “hours. The medium is then aspirated and 24 ml of complete medium containing 10% DMSO for exactly 2 minutes and then aspirated.”
Human SNORF44 receptor-mediated activation of the inositol phosphate (IP) second messenger pathways were assessed by radiometric measurement of IP products.
For example, in a 96 well microplate format assay, COS-7 cells expressing the receptor of interest were plated at a density of 70,000 cells per well and allowed to incubate for 24 hours. […] 200 μL of scintillation cocktail was added to each well, and the radioactivity was determined by liquid scintillation counting.

human SNORF44 receptor = biological target: T2, human SNORF44 receptor; experiment: cell-based or functional assay

Sequence of MC3 (P41968 whole entry): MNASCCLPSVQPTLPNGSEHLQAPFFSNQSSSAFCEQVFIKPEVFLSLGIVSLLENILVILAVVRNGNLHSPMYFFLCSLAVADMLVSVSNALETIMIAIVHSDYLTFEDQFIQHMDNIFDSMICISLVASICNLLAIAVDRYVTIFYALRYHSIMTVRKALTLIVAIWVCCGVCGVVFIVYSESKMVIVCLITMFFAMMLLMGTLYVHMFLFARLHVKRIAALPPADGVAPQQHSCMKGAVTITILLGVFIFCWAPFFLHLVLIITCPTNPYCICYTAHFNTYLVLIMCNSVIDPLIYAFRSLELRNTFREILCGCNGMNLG

Molecule	response in control oocytes (human SNORF44)	release of intracellular Ca2+ as measured by FLIPR (hSNORF44 [2])	current amplitude (Ca2+-dependent Cl- current) (hSNORF44 [3])	EC50, release of IP second messengers, COS-7 cells (human SNORF44 receptor)	other results
gamma melanocortin [γ-MSH]	–	–	–	–	agonist activity at recombinant MC3 receptor (MC3): agonist
NPY [reference compound]	–	–	–	–	effect on intracellular Ca2+ release (hSNORF44 [1]): neither NPFF nor NPY (ligands activating the most closely related GPCRs) had any significant effect
H-YGGHFRW-NH2 [Peptide 3, YGGHFRW-NH2]	not in control oocytes	stimulated release of intracellular Ca^2+	250±46 nA	–	–
H-MGHFRF-NH2 [Peptide 2, MGHFRF-NH2]	not in control oocytes	stimulated release of intracellular Ca^2+	241±65 nA	–	–
H-YSMEHFRW-NH2 [Peptide 1]	no response; also recorded: does not respond	concentration-dependent release of intracellular Ca^2+	1036±306 nA	–	release of IP second messengers, fold above basal (hSNORF44 [4]): approximately 10 fold
NPFF (FLFQPQRF; ends and bridges not checked; UniProt O15130 69-76, looked up) [reference compound]	–	–	–	–	effect on intracellular Ca2+ release (hSNORF44 [1]): neither NPFF nor NPY (ligands activating the most closely related GPCRs) had any significant effect
MGHFRF-NH2 [Peptide 2]	–	–	–	294 nM	–
YSMEHFRW-NH2 [Peptide 1]	–	–	–	1210 nM	release of IP second messengers, fold above basal, COS-7 cells (human SNORF44 receptor): ~10 fold
YGGHFRW-NH2 [Peptide 3]	–	–	–	328 nM	–
